What was measured:
[1] = reported pH of the agent; cited from earlier work
[2] = broad cross section of people; '16-20 hour protection and more'; previously presented in U.S. Pat. No. 5,512,274; cited from earlier work
[3] = test system: microorganisms responsible for the odour in perspiration; test: destruction of odour-causing microorganisms; conditions: disinfectant agent in the MgO/ZnO deodorant formulation, 0.5% to 1% by weight
Text: It is believed that the previously recognized synergy between the zinc and magnesium compounds has been further augmented with the disinfection capacity of a potassium and/or […]. Turning to the specific formulations, in a first embodiment, the deodorant formulation includes magnesium oxide in an amount of between 1% and 2.5% by weight and zinc oxide in an amount of between 0.5% and 1.5% by weight. In order to further augment the efficacy of the formulation, a disinfectant agent is included. As an example, potassium sulfate in an amount of between 0.5% and 1% by weight. Propylene glycol in an amount between 45% and 57% by weight is included. Other polyols may be substituted such as glycenol, etc. Sodium stearate is also present in am amount between 4% and 8% by weight. Glycerin is also present in an amount from between 6% and 10% by weight. The balance of the formulation is obviously water. […] The provision for the suspension is very convenient, since the active ingredients are all present and this suspension can used as a precursor in the formulation of other deodorizing products.

Structure (SMILES) | pH [1] | duration of deodorant protection [2] | efficacy in destroying the microorganisms responsible for the odour in perspiration [3]
[Ca+2].[OH-].[OH-] [Lime, calcium hydroxide] | ≥ 12.5 |  | 
[Mg+2].[OH-].[OH-] [magnesium hydroxide] | ~10.0 | 16 to 20 h | 
O=S(=O)([O-])[O-].[K+].[K+] [potassium sulfate] |  |  | particularly effective

Source: US20140271517A1, “DEODORANT FORMULATION” (priority 2013, published 2014)
